Experiment [1] deals with T1, L-phenylalanine dehydrogenase produced by Bacillus sp. SCRC-R79a (Lysinibacillus sphaericus, UniProt P23307).
T1 sequence (P23307 1-381): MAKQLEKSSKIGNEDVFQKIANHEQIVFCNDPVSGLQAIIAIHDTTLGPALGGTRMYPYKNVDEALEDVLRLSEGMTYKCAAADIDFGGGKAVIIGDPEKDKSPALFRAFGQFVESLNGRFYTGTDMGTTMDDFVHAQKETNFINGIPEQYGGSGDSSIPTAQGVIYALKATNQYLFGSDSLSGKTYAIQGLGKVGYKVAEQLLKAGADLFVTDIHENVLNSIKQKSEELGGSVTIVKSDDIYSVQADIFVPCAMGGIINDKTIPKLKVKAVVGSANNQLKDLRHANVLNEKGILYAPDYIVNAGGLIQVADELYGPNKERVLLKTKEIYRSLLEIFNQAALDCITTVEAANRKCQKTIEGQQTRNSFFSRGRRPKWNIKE
The experiment in a line: Effect of metal ions and inhibitors on enzyme activity (Bacillus enzyme). In kind it is biochemical. Further details: inoculated with Bacillus sp; endogenous in cells; host or cells: Bacillus sp; enzyme purified in house. To be noted: for activity at 1000 µM: read-out: Relative activity. How it is done:
Unless otherwise described, the concentration of metal cations and inhibitors is 1 mM.

In experiment [2] the target is T2, L-phenylalanine dehydrogenase produced by Sporosarcina ureae SCRC-R04 (Sporosarcina ureae, UniProt P97014).
T2 sequence (P97014 1-379): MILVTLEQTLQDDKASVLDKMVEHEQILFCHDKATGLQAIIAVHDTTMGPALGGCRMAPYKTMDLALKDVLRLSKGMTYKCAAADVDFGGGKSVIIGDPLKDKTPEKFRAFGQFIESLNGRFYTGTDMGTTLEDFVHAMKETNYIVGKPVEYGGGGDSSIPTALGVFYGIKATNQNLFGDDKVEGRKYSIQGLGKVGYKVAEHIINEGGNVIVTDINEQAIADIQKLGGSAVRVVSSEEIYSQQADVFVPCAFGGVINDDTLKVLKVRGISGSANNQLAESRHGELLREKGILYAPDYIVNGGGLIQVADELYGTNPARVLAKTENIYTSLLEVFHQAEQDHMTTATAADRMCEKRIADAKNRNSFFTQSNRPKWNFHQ
The experiment in a line: biochemical. In kind it is biochemical. The note with it: for activity at 1000 µM: read-out: Relative activity.

The mark [3] stands for this setting: 1 mM, not added = 100, listed as Fe^3+, 1000 µM.

Where two headings read alike, the source gives them in different places.

On to `[Ca+2]` [Ca^2+], for which the Relative activity in experiment [1] (1 mM, not added = 100) came out at 92%; in experiment [2] (1 mM, not added = 100), 100%.
`Oc1cccc2cccnc12` [8-Oxyquinoline]: the Relative activity is given as 96 in experiment [1] (1000 µM) and 101 in experiment [2] (1000 µM).
In the case of `[N-]=[N+]=[N-].[Na+]` [NaN3], the Relative activity is reported as 102% in experiment [1] (1 mM, not added = 100) and 100% in experiment [2] (1 mM, not added = 100).
For `[Ba+2]` [Ba^2+] the same measures were 93% and 106%.
On to `CCN1C(=O)C=CC1=O` [N--Ethylmaleimide, N-ethylmaleimide], for which the activity at 1000 µM amounted to 162% in experiment [1] (1 mM, not added = 100) and 21% in experiment [2] (1 mM, not added = 100). For the same compound, the “effect on enzyme activity (in words)” value in experiment [2] is “inhibited”.
As for `[Na+]` [Na^+], the Relative activity stood at 93% in experiment [1] (1 mM, not added = 100) and 92% in experiment [2] (1 mM, not added = 100).
For `[Cu+2]` [Cu^2+] the same measures were 85% and 91%.
As for `[Ag+]` [Ag^+], the “effect on enzyme activity (in words)” value in experiment [1] and in experiment [2] was “inhibited” throughout. Moreover, the Relative activity in experiment [1] (1 mM, not added = 100) is given as 0%; in experiment [2] (1 mM, not added = 100) it was 0%.
For `O=C(O)c1cc[c]([Hg][Cl])cc1` [PCMB], the “effect on enzyme activity (in words)” value in experiment [1] and in experiment [2] was “inhibited” each time. The Relative activity in experiment [1] (0.2 mM, not added = 100) is recorded as 0%; in experiment [2] (0.2 mM, not added = 100) it was 0%.
On to `[Cd+2]` [Cd^2+], for which the Relative activity amounted to 102% in experiment [1] (1 mM, not added = 100) and 70% in experiment [2] (1 mM, not added = 100).
As to `c1cnc2c(c1)ccc1cccnc12` [o-Phenanthroline], the activity at 1000 µM was determined as 99% in experiment [1] (1 mM, not added = 100) and 103% in experiment [2] (1 mM, not added = 100).
Take `NO` [Hydroxylamine]: the Relative activity in experiment [1] (10 mM, not added = 100) is listed as 90%; in experiment [2] (10 mM, not added = 100) it was 173%.
As for `[Mg+2]` [Mg^2+], the Relative activity was found to be 99% in experiment [1] (1 mM, not added = 100) and 90% in experiment [2] (1 mM, not added = 100).
Consider `[Fe+2]` [Fe^2+], for which the Relative activity in experiment [1] (1 mM, not added = 100, 1000 µM) was 116%; in experiment [1] (setting [3]), 117%; in experiment [2] (1 mM, not added = 100, 1000 µM), 127%; in experiment [2] (setting [3]), 161%.
Turning to `[Pb+2]` [Pb^2+], the Relative activity in experiment [1] (1 mM, not added = 100) was determined as 53%; in experiment [2] (1 mM, not added = 100), 81%.
For the compound `[Sn+2]` [Sn^2+], the Relative activity is reported as 110% in experiment [1] (0.5 mM, not added = 100) and 123% in experiment [2] (0.5 mM, not added = 100).
Turning to `O=C(O)CN(CCN(CC(=O)O)CC(=O)O)CC(=O)O` [EDTA], the activity at 1000 µM turned out to be 120% in experiment [1] and 119% in experiment [2].
For the compound `c1ccc(-c2ccccn2)nc1` [α,α'-Dipyridyl], the activity at 1000 µM in experiment [1] (1 mM, not added = 100) was 104%; in experiment [2] (1 mM, not added = 100), 124%.
With `[Hg+2]` [Hg^2+], the “effect on enzyme activity (in words)” value in experiment [1] and in experiment [2] was “inhibited” each time. Further, the Relative activity in experiment [1] (0.01 mM, not added = 100) amounted to 38%; in experiment [2] (0.01 mM, not added = 100), 0%.
Regarding `[Mn+2]` [Mn^2+], the Relative activity in experiment [1] (1 mM, not added = 100) came out at 95%; in experiment [2] (1 mM, not added = 100) it was 129%.
Regarding `[Li+]` [Li^+], the Relative activity stood at 95% in experiment [1] (1 mM, not added = 100) and 96% in experiment [2] (1 mM, not added = 100).
Taken in the same sequence, the figures for `[Zn+2]` [Zn^2+] were 96% and 99%.
With `O=C(O)CI` [Iodoacetic acid], the activity at 1000 µM in experiment [1] is 127%; in experiment [2], 91%.
With `[Al+3]` [Al^3+], the Relative activity in experiment [1] (1 mM, not added = 100) amounted to 99%; in experiment [2] (1 mM, not added = 100), 153%.
Taken in the same sequence, the figures for `[Ni+2]` [Ni^2+] were 100% and 100%.
`O=C(O)c1cc(SSc2ccc([N+](=O)[O-])c(C(=O)O)c2)ccc1[N+](=O)[O-]` [5,5'-Dithio-bis(2-nitrobenzoic acid)]: the activity at 1000 µM worked out at 74% in experiment [1] (1 mM, not added = 100) and 0% in experiment [2] (1 mM, not added = 100). In addition, the “effect on enzyme activity (in words)” value in experiment [2] is listed as “inhibited”.
